Measured values from patent US6284914A, “Highly water-soluble metalloproteinase inhibitors” (Fuji Yakuhin Kogyo Kabushiki Kaisha, priority 1995, dated 2001).
≈ marks a conversion by molar mass, not a printed value. Counter-ions that a name gives are not always drawn. Like-named read-outs stand apart in the source and are kept apart here.

Legend:
[1] = target: T1, TNF-α converting enzyme (Homo sapiens, UniProt P78536); assay: Assay for Suppression of TNF-α Production (LPS-stimulated U937 cells); format: cell-based; conditions: U937 cells (PMA-differentiated), Lipopoplysaccaride 0.1 μg/ml, 37° C., 6 hours, TNF-α in supernatant; read-out: Inhibitory activities for TNF-α converting enzyme, IC50 value
T1 construct: Human monocyte derived leukemia cell-line U937; endogenous in cells; host or cells: U937 (PMA-differentiated, LPS-stimulated)
Protocol: Human monocyte derived leukemia cell-line U937 [5% bovine fetal serum (Men-eki Seibutsu Ken) was added to RPMI1640 (Nissui Seiyaku) and incubated in a 5% CO2 incubation chamber at 37° C., whereby 1×10^6 cells/1 ml were placed into each well of a multi-well plate and then incubated in presence of Phorbol 12-myristate 13-acetate (10^-7 M, Wako Junyaku) overnight and differentiated to macrophage like cells.] was added with Lipopoplysaccaride (0.1 μg/ml, Sigma) derived from E.coli 0127:B8 strain alone or together with a compound in Examples, and incubated in a 5% CO2 incubation chamber at 37° C. for 6 hours. After the incubation, the culture medium was taken and centrifuged at 3000 g for 10 min., whereby the supernatant was diluted with purified water forthe measurement using the TNF-α measurement kit (Genzyme) (Table 2).

[2] = target: T2, stromelysin (MMP-3) (Homo sapiens, UniProt P08254); assay: Assay for Stromelysin Inhibitory Activity (MMP-3); format: biochemical; conditions: fluorescein-labeled casein substrate, 37° C., 2 hours, pH 7.8; read-out: Inhibitory activities for matrix metalloproeinases (MMPs), MMP-3, IC50 value
T2 construct: endogenous in cells; host or cells: human fibroblast
Protocol: (§1) Inhibitory activities of the compounds represented by the general formula (I) according to the invention for collagenase (metalloproteinase concerned with a tissue destruction) derived from human fibroblast were tested by the method of Y. Murawaki et al., [Journal of Hepatology, 18, p. 328-334 (1993)], and their inhibitory activities for stromelysin derived from human fibroblast were measured by the method of S. S. Twining et al., [Anal. Biochem., 143, p. 30 (1984)].
Inhibitory activities for stromelysin (MMP-3) of the compounds of Examples and comparative compounds were measured by the method of S. S. Twining et al., [Anal. Biochem., 143, p. 30 (1984)]. The latent prostromelysin was incubated with human plasmin (20 μg/ml) for the activation at 37° C. for 2 hours, and then the incubate was added with diisopropyl fluorophosphate solution (2.8 mg/ml) to stop the reaction. The assay was done by using casein labeled with fluorescein as the substrate. The activated stromelysin was added to a substrate solution (1 mg/ml) in Tris HCl buffer (50 mM, pH 7.8) containing calcium chloride (10 mM). The obtained solution was incubated at37° C. for 2 hours. The enzyme digestion forthesubstrate was stopped by adding 5% trichloroacetic acid. The indigested substrate was sedimented by centrifuging at 3000 g for 20 min. The supernatant was taken and added with Tris HCl buffer (0.5 M, pH 8.5), whereby its intensity of fluorescence was determined by the excitation wavelength (495 nm) and the measured wavelength (520 nm), and the inhibitory activity was obtained. IC50 is a concentration of a compound assayed in the digesting enzyme, whereby the splitting of the substrate was decreased to 50% compared with that attained by the enzyme alone.

[3] = Measurement of Solubility in Water; format: physicochemical; conditions: distilled water, 20±5° C., 30 min., checked by eye
Protocol: A compound of Examples or a comparative compound was added to distilled water and shaken vigorously at 20±5° C. for 30 seconds at 5 min. interval. After 30 min., it was checked by watching with eye whether the compound was dissolved or not.

[4] = target: T3, collagenase (MMP-1) (Homo sapiens, UniProt P03956); assay: Assay for Collagenase Inhibitory Activity (MMP-1); format: biochemical
T3 construct: endogenous in cells; host or cells: human fibroblast
T3 sequence (P03956 100-469): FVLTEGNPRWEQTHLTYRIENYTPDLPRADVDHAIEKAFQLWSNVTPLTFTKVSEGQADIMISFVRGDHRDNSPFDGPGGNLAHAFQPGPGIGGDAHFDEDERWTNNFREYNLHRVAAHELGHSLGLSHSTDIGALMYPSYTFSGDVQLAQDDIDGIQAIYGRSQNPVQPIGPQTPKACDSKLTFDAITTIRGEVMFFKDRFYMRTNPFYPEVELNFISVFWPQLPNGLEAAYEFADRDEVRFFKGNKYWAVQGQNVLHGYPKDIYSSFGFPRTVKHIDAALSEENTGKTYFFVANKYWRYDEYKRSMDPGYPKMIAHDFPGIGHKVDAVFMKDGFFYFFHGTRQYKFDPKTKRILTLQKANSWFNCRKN
Protocol: as §1
Inhibitory activities for collagenase (MMP-1) of the compounds of Examples and comparative compounds were measured by the method of Y. Murawaki et al., [Journal of Hepatology, 18, p. 328-334 (1993)]. The latent procollagenase was activated by incubating with mercury aminophenylacetate (2 mM) at 35° C. for 2 hours. The assay was done by using bovine type I collagen labeled with fluorescein as a substrate. The activated collagenase was added to the substrate solution (0.5 mg/ml) in Tris HCl buffer (50 mM, pH 7.5) containing sodium chloride (0.4 M) and calcium chloride (10 mM). The obtained solution was incubated at 35° C. for 2 hours. The enzyme digestion was stopped by the addition of o-phenanthroline (80 mM). The mixture was added with pig spleen elastase solution (25 μg/ml) in the above Tris HCl buffer, and incubated 37° C. for 10 min. The obtained solution was added with 70% ethanol and Tris HCl buffer (170 mM, pH 9.5) containing sodium chloride (0.61 M), whereby the indigested substrate was sedimented by centrifuging at 3000 g for 20 min. The supernatant was taken, and its intensity of fluorescence was determined by the excitation wavelength (495 nm) and the measured wavelength (520 nm), and the inhibitory activity was obtained. IC50 is a concentration of a compound assayed in the digesting enzyme, whereby the splitting of the substrate was decreased to 50% compared with that attained by the enzyme alone.

[5] = fluorescein-labeled bovine type I collagen substrate, 35° C., 2 hours, pH 7.5, read-out: Inhibitory activities for matrix metalloproeinases (MMPs), MMP-1, IC50 value

T1 sequence (P78536 215-824): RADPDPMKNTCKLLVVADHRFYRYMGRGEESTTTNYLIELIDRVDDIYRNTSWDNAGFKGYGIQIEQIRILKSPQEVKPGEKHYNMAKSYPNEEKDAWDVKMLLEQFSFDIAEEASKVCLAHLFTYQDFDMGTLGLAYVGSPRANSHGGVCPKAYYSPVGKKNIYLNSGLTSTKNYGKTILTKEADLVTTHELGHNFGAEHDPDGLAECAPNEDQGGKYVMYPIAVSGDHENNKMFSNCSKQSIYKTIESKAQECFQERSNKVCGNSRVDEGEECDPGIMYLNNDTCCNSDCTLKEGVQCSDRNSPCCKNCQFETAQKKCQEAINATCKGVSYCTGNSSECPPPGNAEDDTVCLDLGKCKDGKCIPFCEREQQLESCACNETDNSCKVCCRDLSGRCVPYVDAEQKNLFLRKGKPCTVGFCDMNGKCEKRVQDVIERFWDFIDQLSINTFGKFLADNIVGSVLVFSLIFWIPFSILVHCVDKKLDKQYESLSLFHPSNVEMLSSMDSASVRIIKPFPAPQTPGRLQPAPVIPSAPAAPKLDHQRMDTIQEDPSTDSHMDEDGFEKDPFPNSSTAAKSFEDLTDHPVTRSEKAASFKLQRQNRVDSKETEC
T2 sequence (P08254 100-477): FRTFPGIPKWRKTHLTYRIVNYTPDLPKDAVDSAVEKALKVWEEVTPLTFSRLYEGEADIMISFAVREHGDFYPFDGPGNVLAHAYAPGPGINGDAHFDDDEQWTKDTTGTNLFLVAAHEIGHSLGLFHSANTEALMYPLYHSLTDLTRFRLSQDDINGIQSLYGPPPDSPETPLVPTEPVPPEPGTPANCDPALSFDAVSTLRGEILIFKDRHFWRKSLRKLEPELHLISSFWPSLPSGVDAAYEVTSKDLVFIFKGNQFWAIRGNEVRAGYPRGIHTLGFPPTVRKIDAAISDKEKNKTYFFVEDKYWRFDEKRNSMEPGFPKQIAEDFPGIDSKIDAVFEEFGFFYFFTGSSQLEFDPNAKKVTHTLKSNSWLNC

Row | SMILES | IC50 [1] | IC50 [2] | solubility at 0.5 h ([3]; water) | IC50 [4, 5] | also measured
1 | CNC(=O)[C@H](Cc1ccc(NC(=N)N)cc1)NC(=O)[C@H](CC(C)C)[C@H](O)C(=O)NO [Example 16, N-[4-(N-Hydroxyamino)-2(R)-isobutyl-3(S)-hydroxysuccinyl]-L-4'-guanidophenylalanine-N-methylamide Monoacetate] | 7000 nM | – | – | – | –
2 | CNC(=O)[C@H](Cc1ccc(NC(=N)N)cc1)NC(=O)[C@H](CC(C)C)C(CCCc1ccccc1)C(=O)NO (single isomer, unassigned) [Example 8, N-[4-(N-Hydroxyamino)-2(R)-isobutyl-3(R or S)-(3-phenyltrimethylene)succinyl]-L-4'-guanidophenylalanine-N-methylamideMonoacetate] | 98 nM | 6 nM | 30 mg/mL (≈ 57.2 mM) | 6 nM | –
3 | CNC(=O)[C@H](Cc1ccc(OS(=O)(=O)O)cc1)NC(=O)[C@H](CC(C)C)C(CCCc1ccccc1)C(=O)NO (single isomer, unassigned) [Example 3 (Isomer B), N-[4-(N-Hydroxyamino)-2(R)-isobutyl-3(R or S)-(3-phenyltrimethylene)succinyl]-O-sulfo-L-tyrosine-N-methylamide, Monosodium Salt] | – | 5.4 nM | – | 0.4 nM | Solubility in water ([3]; Monosodium Salt): 150 mg/mL
4 | COc1ccc(NC(=O)[C@H](Cc2ccc(OS(=O)(=O)O)cc2)NC(=O)[C@H](CC(C)C)C(CCCc2ccccc2)C(=O)NO)cc1 (stereo partly drawn) [Example 7, N-[4-(N-Hydroxyamino)-2(R)-isobutyl-3(RS)-(3-phenyltrimethylene)succinyl]-O-sulfo-L-tyrosine-N-p-methoxyphenylamide, Monosodium Salt] | – | 10 nM | 100 mg/mL | 8 nM | –
5 | CNC(=O)[C@H](Cc1ccc(OP(=O)(O)O)cc1)NC(=O)C(CC(=O)NO)CC(C)C (single isomer, unassigned) [Example 9, N-[4-(N-Hydroxyamino)-2(R or S)-isobutylsuccinyl]-O-phospho-L-tyrosine-N-methylamide, Disodium Salt] | – | 400 nM | – | – | solubility at 0.5 h [3]: > 200 mg/mL; IC50 [4]: 17 nM
6 | CNC(=O)[C@H](Cc1cccc(OS(=O)(=O)O)c1)NC(=O)[C@H](CC(C)C)C(CCCc1ccccc1)C(=O)NO (single isomer, unassigned) [Example 15, N-[4-(N-Hydroxyamino)-2(R)-isobutyl-3(R or S)-(3-phenyltrimethylene)succinyl]-O-sulfo-L-meta-tyrosine-N-methylamide, Monosodium Salt] | – | 5.8 nM | 120 mg/mL | 8 nM | –
7 | CCC(=N)NCc1ccc(C[C@H](NC(=O)[C@H](CC(C)C)C(CCCc2ccccc2)C(=O)NO)C(=O)NC)cc1 (single isomer, unassigned) [Example 11, N-[4-(N-Hydroxyamino)-2(R)-isobutyl-3(R or S)-(3-phenyltrimethylene)succinyl]-L-4'-propionimidoyliminomethylenephenylalanine-N-methylamide Monoacetate] | 400 nM | 9 nM | – | 5.8 nM | –
8 | CCCOC[C@H](C(=O)N[C@@H](Cc1ccc(S(=O)(=O)[O-])cc1)C(=O)NC)C(CSC(C)C)C(=O)NO.[Na+] (mixture of isomers) [Example 6, N-[4-(N-Hydroxyamino)-2(R)-n-propyloxymethylene-3(RS)-isopropylthiomethylenesuccinyl]-L-4'-sulfophenylalanine-N-methylamide, Monosodium Salt] | – | 280 nM | – | 20 nM | Solubility in water [3]: > 120 mg/mL
9 | CNC(=O)[C@H](Cc1ccc(S(=O)(=O)O)cc1)NC(=O)[C@H](CC(C)C)C(CSc1cccs1)C(=O)NO (single isomer, unassigned) [Example 5, N-[4-(N-Hydroxyamino)-2(R)-isobutyl-3(R or S)-(thienylthiomethylene)succinyl]-L-4'-sulfophenylalanine-N-methylamide, Monosodium Salt] | 500 nM | – | – | – | –
10 | CNC(=O)[C@H](Cc1ccc(S(=O)(=O)O)cc1)NC(=O)[C@H](CC(C)C)C(CCCc1ccccc1)C(=O)NO (stereo partly drawn) [Example 4, N-[4-(N-Hydroxyamino)-2(R)-isobutyl-3(RS)-(3-phenyltrimethylene)succinyl]-L-4'-sulfophenylalanine-N-methylamide, Monosodium Salt] | 510 nM | – | 150 mg/mL | – | –
